Test results reported in ChEMBL document CHEMBL1201862, “PubChem BioAssay data set” (2004).
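Cells were grown in 96-well plates and exposed to each compound for 48 hours at five concentrations; endpoints were interpolated linearly between bracketing concentrations, or set to the highest concentration if not reached. At the GI50, growth is halved.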 Calls of active or inactive are those of the source. Cut-off read from the data, not from the text of the source: active = GI50 up to about 1.1 µM and inactive = higher.

Tests used:
Test in all cases: NCI tumour cell line growth inhibition, 48 h
CCRF-CEM = tested on: CCRF-CEM
A498 = tested on: A498
786-0 = tested on: 786-0
IGROV-1 = tested on: IGROV-1
SNB-75 = tested on: SNB-75
Malme-3M = tested on: Malme-3M
OVCAR-8 = tested on: OVCAR-8
A549 = tested on: A549
SK-OV-3 = tested on: SK-OV-3
M14 = tested on: M14
NCI-H23 = tested on: NCI-H23
NCI-H460 = tested on: NCI-H460
CAKI-1 = tested on: CAKI-1
HOP-92 = tested on: HOP-92

SMILES | GI50 (CCRF-CEM) | GI50 (A498) | GI50 (786-0) | GI50 (IGROV-1) | GI50 (SNB-75) | GI50 (Malme-3M) | GI50 (OVCAR-8) | GI50 (A549) | GI50 (SK-OV-3) | GI50 (M14) | GI50 (NCI-H23) | GI50 (NCI-H460) | GI50 (CAKI-1) | GI50 (HOP-92)
CNS(=O)(=O)NNS(=O)(=O)c1ccc2ccccc2c1 | > 100 µM (inactive) | > 100 µM (inactive) | > 100 µM (inactive) | > 100 µM (inactive) | > 100 µM (inactive) | > 100 µM (inactive) | > 100 µM (inactive) | > 100 µM (inactive) | > 100 µM (inactive) | > 100 µM (inactive) | > 100 µM (inactive) | 40.2 µM (inactive) | > 100 µM (inactive) | –
C[C@H](OCc1ccccc1)C(=O)N1CCS(=O)(=O)N2CCC[C@H]2C1=O | > 100 µM (inactive) | > 100 µM (inactive) | > 100 µM (inactive) | > 100 µM (inactive) | > 100 µM (inactive) | > 100 µM (inactive) | > 100 µM (inactive) | > 100 µM (inactive) | > 100 µM (inactive) | > 100 µM (inactive) | > 100 µM (inactive) | > 100 µM (inactive) | > 100 µM (inactive) | > 100 µM (inactive)
CC[C@H](C)C(=O)O[C@H]1C[C@@H](C)C=C2C=C[C@H](C)[C@H](CC[C@@H]3C[C@@H](O)CC(=O)O3)[C@H]21 [LOVASTATIN] | 18.4 µM (inactive) | 1.21 µM (inactive) | 9.77 µM (inactive) | 5.96 µM (inactive) | – | > 30 µM (inactive) | 7.83 µM (inactive) | 21.2 µM (inactive) | 11.8 µM (inactive) | 12.3 µM (inactive) | 1.02 µM (active) | 18 µM (inactive) | 1.17 µM (inactive) | 0.0308 µM (active)
O=C1NC(c2ccccc2)(c2ccccc2)C(=O)N1CCCCCCN1C(=O)NC(c2ccccc2)(c2ccccc2)C1=O | > 100 µM (inactive) | 25.5 µM (inactive) | 12.6 µM (inactive) | 74 µM (inactive) | 4.79 µM (inactive) | 22.5 µM (inactive) | 22.3 µM (inactive) | 21.2 µM (inactive) | 26.9 µM (inactive) | 53.8 µM (inactive) | 18.2 µM (inactive) | > 100 µM (inactive) | 48.5 µM (inactive) | 4.83 µM (inactive)
Cc1cc(O)nc(NNC(C#N)c2ccccc2O)n1 (centres undefined) | 13.6 µM (inactive) | – | 19.8 µM (inactive) | 21 µM (inactive) | 31.5 µM (inactive) | 35.7 µM (inactive) | 35.7 µM (inactive) | 16.8 µM (inactive) | 39.4 µM (inactive) | – | 22.7 µM (inactive) | 10.5 µM (inactive) | 30.8 µM (inactive) | 75.5 µM (inactive)
c1ccc(-c2nnc3nn4c(-c5ccccc5)cnnc4c3c2-c2ccccc2)cc1 | > 100 µM (inactive) | > 100 µM (inactive) | 0.0794 µM (active) | – | 34.4 µM (inactive) | 42.5 µM (inactive) | 76.4 µM (inactive) | 50.8 µM (inactive) | – | > 100 µM (inactive) | > 100 µM (inactive) | 75.7 µM (inactive) | 23.7 µM (inactive) | 59.8 µM (inactive)
COC[C@@H](/N=C/N1CCc2cc(OC)c(OC)cc2C1)C(C)(C)C | > 100 µM (inactive) | – | > 100 µM (inactive) | > 100 µM (inactive) | > 100 µM (inactive) | > 100 µM (inactive) | > 100 µM (inactive) | > 100 µM (inactive) | > 100 µM (inactive) | > 100 µM (inactive) | > 100 µM (inactive) | > 100 µM (inactive) | > 100 µM (inactive) | > 100 µM (inactive)
O=C(N/C(=C\c1cccc([N+](=O)[O-])c1)c1nc2cc([N+](=O)[O-])ccc2[nH]1)c1ccccc1 | 19.8 µM (inactive) | – | 36.1 µM (inactive) | 21.4 µM (inactive) | – | 48.2 µM (inactive) | 31 µM (inactive) | 26.8 µM (inactive) | 71.3 µM (inactive) | 38.9 µM (inactive) | 27.3 µM (inactive) | – | 30.4 µM (inactive) | 21.4 µM (inactive)
CC(C)C(Nc1c2ccccc2nc2ccccc12)C(=O)O (centres undefined) | > 100 µM (inactive) | – | > 100 µM (inactive) | > 100 µM (inactive) | > 100 µM (inactive) | > 100 µM (inactive) | > 100 µM (inactive) | > 100 µM (inactive) | > 100 µM (inactive) | > 100 µM (inactive) | > 100 µM (inactive) | 65.5 µM (inactive) | > 100 µM (inactive) | 29.2 µM (inactive)
O=C1[C@@H]2C3SC(c4ccccc43)[C@@H]2C(=O)N1c1ccccc1 | > 100 µM (inactive) | > 100 µM (inactive) | > 74 µM (inactive) | > 100 µM (inactive) | 28.6 µM (inactive) | > 100 µM (inactive) | > 100 µM (inactive) | > 100 µM (inactive) | > 83.4 µM (inactive) | > 100 µM (inactive) | > 100 µM (inactive) | > 100 µM (inactive) | > 100 µM (inactive) | > 64.1 µM (inactive)
CCN(CC)c1ccc2c(c1)N=C1N=CC=CN1C2(c1ccc(N(C)C)cc1)c1ccc(N(C)C)cc1 | 8.55 µM (inactive) | 17.5 µM (inactive) | 7.73 µM (inactive) | 10.4 µM (inactive) | 11.6 µM (inactive) | 12.7 µM (inactive) | 4.19 µM (inactive) | 12 µM (inactive) | 2.61 µM (inactive) | 3.32 µM (inactive) | 6.95 µM (inactive) | 5.62 µM (inactive) | 11.1 µM (inactive) | 2.82 µM (inactive)
CCCc1nn(C)c(CCC(=O)N(Cc2ccccc2)Cc2ccccc2)c1CC | > 100 µM (inactive) | > 100 µM (inactive) | > 100 µM (inactive) | > 100 µM (inactive) | 47 µM (inactive) | > 100 µM (inactive) | > 100 µM (inactive) | > 100 µM (inactive) | > 100 µM (inactive) | > 100 µM (inactive) | > 100 µM (inactive) | > 100 µM (inactive) | – | > 100 µM (inactive)
COc1cc2c(c(OC)c1OC)-c1ccc(SC)c(=O)cc1C(CC(=O)Oc1cccc(F)c1)C2 (centres undefined) | 0.228 µM (active) | 0.0545 µM (active) | 0.114 µM (active) | 0.787 µM (active) | 0.138 µM (active) | 0.267 µM (active) | 0.337 µM (active) | 0.577 µM (active) | 0.0385 µM (active) | 0.242 µM (active) | 0.259 µM (active) | 0.212 µM (active) | 1.35 µM (inactive) | 1.24 µM (inactive)
COC(=O)C1=C(c2ccc(OC)c(OC)c2)OC(c2ccc(OC)c(OC)c2)C1 (centres undefined) | 31.4 µM (inactive) | 12.7 µM (inactive) | 31.6 µM (inactive) | 25.1 µM (inactive) | 41.4 µM (inactive) | 30 µM (inactive) | 29.5 µM (inactive) | 42.3 µM (inactive) | 32.6 µM (inactive) | 38.7 µM (inactive) | 48.5 µM (inactive) | 41 µM (inactive) | – | 13.8 µM (inactive)
COc1ccc(/C=N/N=C(\N)NO)cc1OC | 49.7 µM (inactive) | – | 31 µM (inactive) | 33.9 µM (inactive) | 42.9 µM (inactive) | 75.2 µM (inactive) | 38.4 µM (inactive) | 28.4 µM (inactive) | 45.1 µM (inactive) | 27.9 µM (inactive) | > 100 µM (inactive) | 33.7 µM (inactive) | 29.5 µM (inactive) | 84.7 µM (inactive)
COC(=O)/C=C1/CCC2[C@@H](C(=O)CC3[C@]2(C)CCC[C@@]3(C)C(=O)OC)C1C (some centres undefined) | 3.56 µM (inactive) | 17.7 µM (inactive) | 14.9 µM (inactive) | 20.2 µM (inactive) | 8.99 µM (inactive) | 16.1 µM (inactive) | 12.3 µM (inactive) | 15.6 µM (inactive) | 30.9 µM (inactive) | 13.2 µM (inactive) | 11.2 µM (inactive) | 14.2 µM (inactive) | 5.36 µM (inactive) | 5.13 µM (inactive)
O=c1cc(-c2ccccc2)oc2cc(O)cc(O)c12 [CHRYSIN] | 19.4 µM (inactive) | – | 23.6 µM (inactive) | > 10 µM (inactive) | 10.3 µM (inactive) | 24.3 µM (inactive) | – | 27 µM (inactive) | 27.9 µM (inactive) | 33 µM (inactive) | 20.9 µM (inactive) | 14.2 µM (inactive) | – | 16.4 µM (inactive)
Cc1ccccc1C(C#N)/C(=N/NC(=O)C(=O)NN)C(=O)Nc1cccc(C(F)(F)F)c1 (centres undefined) | > 100 µM (inactive) | > 100 µM (inactive) | > 100 µM (inactive) | > 100 µM (inactive) | 49.8 µM (inactive) | > 100 µM (inactive) | > 100 µM (inactive) | > 100 µM (inactive) | – | > 100 µM (inactive) | > 100 µM (inactive) | > 100 µM (inactive) | > 100 µM (inactive) | > 100 µM (inactive)
COC(=O)c1ccccc1/N=C/c1ccc(N(CCC#N)S(=O)(=O)c2ccccc2)cc1 | > 100 µM (inactive) | > 100 µM (inactive) | > 100 µM (inactive) | > 100 µM (inactive) | > 100 µM (inactive) | > 100 µM (inactive) | > 100 µM (inactive) | > 100 µM (inactive) | > 100 µM (inactive) | > 100 µM (inactive) | > 100 µM (inactive) | > 100 µM (inactive) | > 100 µM (inactive) | > 100 µM (inactive)
COc1ccc(-c2cc(=O)c3c(O)cc(O)cc3o2)c(OC)c1OC | 50 µM (inactive) | – | 80 µM (inactive) | > 100 µM (inactive) | 38.3 µM (inactive) | > 100 µM (inactive) | – | 59.3 µM (inactive) | > 100 µM (inactive) | > 100 µM (inactive) | > 100 µM (inactive) | – | 60.8 µM (inactive) | 72.6 µM (inactive)
